Data from patent publication US12116344B2, “Crystalline forms of a pharmaceutical compound” (Azafaros B.V., priority 2020, dated 2024).

Assays:
Hexb (−/−) mice = test: Clinical signs in mice suffering from Sandhoff disease; assay type: in vivo; conditions: initial data
Procedure: Mice suffering from Sandhoff disease were administered a therapeutically effective amount of AZ-3102.

NPC (−/−) mice = test: Clinical signs and tremor score in the Niemann-Pick type C mouse model; assay type: in vivo; conditions: for Overall clinical signs: scores PND 56-70
Procedure: Out of the 38 mice to be included in this study, there were 30 NPC (−/−) knock-out (KO) mice, 4 NPC (+/−) heterozygous mice and 4 NPC (+/+) wild-type (WT, Balb/c) mice. NPC1(−/−) mice have a premature truncation of the protein deleting 11 out of 13 transmembrane domains leaving the first two transmembrane domains intact. NPC1(−/−) mice homozygous for the recessive NIH allele of the Niemann Pick type C1 gene (Npc1 ml N) show a dual deficiency of sphingomyelinase and glucocerebrosidase activity (JAX #003092). Animals were bred on a BALB/c OlaHsd background.
(§1) 24 NPC1 (−/−) mice (groups D to I) were treated per oral gavage (10 mL/kg) with AZ-3102-00 from post-natal day 11 (P11) to post-natal-day 70 (P70). Dosing will start at 1.5 mg/kg from P11 to P25, followed by 3 mg/kg from P26 to P70. Control mice included 6 NPC1 (−/−) and 4 NPC (+/−) mice treated with vehicle and 4 NPC (+/+) mice received AZ-3102-00 (groups A to C).
Definitions of Clinical Scores and Humane Endpoints Clinical Signs were monitored on a daily basis starting at P45 until the end of the study (according to the template shown in FIG. 18). The parameters “weight loss”, “general health”, “clinical findings” and “line specific findings” were recorded and rated according to a score scale. The sum of this score was used for evaluation.
Pink (=light grey) bars represent the appearance and duration of a high level of tremor (sore of 5); whereas the green (=dark grey) bars represent the appearance and duration of a slight or moderate tremor. […] Possible tremor scores: 0: no tremor1: Slight incoordination, slight-moderate tremor; 5: High level of Tremor, uncoordinated movement; 10: Reduced righting reflex (no animal achieved this score).

[1] = Body weight of NPC mice, PND 11 to Week 9; assay type: in vivo
Procedure: Body weights and health status were recorded daily for the first week and later once a week.
as §1
Graph represents the progress of body weights [g] per group measured daily during the first treatment week and weekly thereafter.

[2] = Stability of the test item in vehicle (acidified water); assay type: physicochemical; conditions: for Stability in the vehicle: 0.01 to 2 mg/mL
Calbindin-D28k = test: Brain immunofluorescence of Calbindin-D28k (Purkinje cell marker); assay type: in vivo, mice
Procedure: Mouse right hemi-brains were fixed by immersion in freshly prepared 4% paraformaldehyde in PB (pH 7.4) for two hours at room temperature. Afterwards, hemispheres were transferred to 15% sucrose/PBS and stored at 4° C. until sunk to ensure cryoprotection. Tissue blocks were then trimmed as needed, transferred to cryomolds, embedded in OCT medium, frozen in dry ice-cooled isopentane and stored in an ultra-deep freezer (set at −80° C. target temperature).
Five consecutive cryosections were sagittally cut at 10 μm thickness on a Leica cryotome. The next 25 sections per level were discarded. This collection scheme was repeated for 12 levels and may have been modified to collect from the correct levels, e.g., if brains were smaller due to young age or genotype. In total 12×5=60 sections were collected. Sectioning levels were chosen according to the brain atlas of Paxinos and Franklin (“The Mouse Brain in Stereotaxic Coordinates”, 2nd edition, 2001). Collection of sections started at a level ˜0.2 mm lateral from midline and extend through the hemisphere to ensure systematic random sampling through the target regions (FIGS. 10 and 15). Sections were stored at −20° C. Almost the entire brain was sectioned, so the residual tissue block was disposed when all sections were collected.
For each incubation, a uniform systematic random set of five sections per mouse was selected (one section each from levels 2, 4, 6, 8, 10); for information on systematic random sampling follow this link: http://www.stereoloqy.info/sampling/ […]
Whole slide scans of the stained sections were recorded on a Zeiss automatic microscope AxioScan Z1 with high aperture lenses, equipped with a Zeiss Axiocam 506 mono and a Hitachi 3CCD HV-F202SCL camera and Zeiss ZEN 2.3 software.
Image analysis was done with Image Pro 10 (Media Cybernetics). […] Afterwards, immunofluorescence was quantitatively evaluated within the identified areas.
For quantification we used background correction if necessary and detect immunoreactive objects by adequate thresholding and morphological filtering (size, shape). […]

SMILES: OC[C@H]1[C@@H](O)[C@H](O)[C@@H](O)CN1CCCCCOCc1ccc(-c2ccccc2)c(F)c1 [AZ-3102]
- Clinical signs of diseased animals (Hexb (−/−) mice): improved
- Mice with a high level of tremor (score of 5) (NPC (−/−) mice; NPC (−/−) mice treated P11-P70, observed PND 56-70, vehicle group 4 out of 5): 1 out of 24
- Initiation, duration and strength of tremor (NPC (−/−) mice; NPC (−/−) mice, treated versus vehicle, PND 56-70): diminished
- Overall clinical signs (NPC (−/−) mice; NPC (−/−) mice, treated versus vehicle): improved clinical signs
- Overall clinical signs (NPC (−/−) mice; NPC (−/−) mice, treated versus vehicle, listed as Form 3): improve the clinical signs
- Body weight gain of treated NPC (−/−) mice versus untreated NPC (−/−) mice ([1]; both genders, daily oral gavage P11-P70, PND 11 to Week 9): gained more than the NPC (−/−) untreated animals
- General health as indicated by average percent body weight gains ([1]; daily oral gavage P11-P70, 1.5 mg/kg (P11-P25) then 3 mg/kg (P26-P70)): not impeded
- Stability in the vehicle ([2]; freezer (≤−15° C.)): at least 3 weeks
- Stability in the vehicle ([2]; refrigerated (2-8° C.)): at least 8 days
- Stability in the vehicle ([2]; room temperature protected from light): at least 24 hours
- Stability in vehicle ([2]; under nitrogen at room temperature protected from light): light for at least 24 h, stored under nitrogen
- Stability in vehicle ([2]; under nitrogen frozen in a freezer (≤−15° C.)): for at least 21 days (3 weeks).
- Calbindin-D28k immunofluorescence in the cerebellum (Calbindin-D28k; NPC (−/−) mice, treated versus vehicle, all readouts): significantly increased
- Calbindin-D28k immunofluorescence in the hippocampus (Calbindin-D28k; NPC mice, group comparison): no significant group differences
- Cerebellar Purkinje cell loss (Calbindin-D28k; treated compared to vehicle treated NPC (−/−) mice, calbindin-D28k marker): significantly limited
